# Where “and” joins values, the source holds several entries; their conditions need not be identical. Equal entries are not always repeated.
# Tests used:
# [1] = Ultimate tensile strength (UTS) of demineralized dentin after cross-linker treatment (Example 1); set-up: species or system human; settings: for Ultimate tensile strength, mean: pH 7.4
# Excerpt: Fixation Processes: Ten sound freshly extracted human molars were used in this study. The teeth were thawed, cleaned of adhering soft tissues, and the occlusal surfaces were ground flat with #320 grit Silicon Carbide paper under running water to remove part of the enamel. Flattening of the occlusal surface by removal of the cusps enables accurate sectioning of samples in beam shape. Teeth were sectioned into 0.5±0.1 by 0.5±0.1 mm thick beams (n=20 beams per tooth) with a slow speed diamond wafering blade (Buehler-Series 15LC Diamond, Lake Bluff, Ill., USA) under constant water coolant (FIG. 1A).
# The slabs were randomly divided into two groups: 1) undemineralized dentin and 2) demineralized dentin (FIG. 1A). In Group 2, dentin beams were immersed in 10% phosphoric acid solution (Fisher Scientific, New Jersey, N.J.) for a period of 5 hours. X-rays were taken from the specimens to verify complete tissue demineralization. Specimens were thoroughly rinsed with distilled water for 10 minutes to remove any residue of the phosphoric acid.
# Specimens from groups 1 and 2 were subdivided according to the dentin treatment (FIG. 1B). In Treatment A, specimens were immersed in PBS solution (pH: 7.4) as a control. In Treatment B, specimens were immersed in 0.5% Proanthocyanidin (MegaNatural—Polyphenolics Ind.) PBS solution (PA) at a pH of 7.4. In Treatment C, specimens were immersed in 0.625% Genipin (Wako Pure Chemical Ind.) PBS solution (GE) at a pH of 7.4. In Treatment D, specimens were immersed in 5% glutaraldehyde solution (GD) (Fisher Scientific, New Jersey, N.J.) at a pH of 7.4. Specimens were kept in their respective solutions for 4 and 40 hours at room temperature. After the incubation periods, specimens were thoroughly rinsed with distilled and deionized water to remove any remains of cross-linking agents and buffer.
# UTS testing: For UTS evaluation, the specimens were glued with a cyanoacrylate adhesive (Zapit—Dental Ventures of America Inc., Corona, Calif.) to a Ciucchi's jig, which was mounted on a universal testing machine (EZ Test, Shimazu Co., Kyoto, Japan) and subjected to microtensile testing at a crosshead speed of 1 mm/min (FIG. 1C). Means and standard deviations were calculated and expressed in microtensile bond strengths (MPa). Statistical analysis was performed using a two-way ANOVA and Fisher's PLSD tests (p<0.05).
# [2] = UTS of demineralized dentin after collagenase challenge (Example 7); settings: for UTS, individual specimens / UTS, mean: 1 h 25% GD or 6.5% GSE
# Method: The data shown below in Tables 7 to 14 and in FIG. 8 describes the effect of grape seed extract and Glutaraldehyde on the tensile strength of demineralized dentin after collagenase challenge. Samples were treated and then subjected to collagenase digestion.
# [3] = Microtensile bond strength of adhesive restoration to sound dentin (Example 2); set-up: species or system human; settings: 5% glutaraldehyde for 5 minutes, versus control (p=0.2395)
# Method: Effect of an exogenous collagen cross-linking agent on dentin bonding: In order to analyze the contribution of exogenous collagen cross-linking to sound and caries-affected dentin bonding, demineralized dentin surfaces were treated with 5% glutaraldehyde and the restored specimens were subjected to microtensile bond strength testing.
# Specimen preparation: Six human molars stored frozen (−20° C.) for less then one month were used. The teeth presented occlusal caries in which enamel was visually intact. The teeth were thawed, cleaned of adhering soft tissues, and the occlusal surfaces were ground flat with #320 and #600 grit Silicon Carbide (Sic) papers under running water to remove the enamel and expose flat middle dentin, respectively. […]
# Microtensile bond test (MTB): After 24 hrs in water at 37° C., the teeth were sectioned into 0.7±0.2 mm thick slabs, and the interfaces trimmed to an hourglass shape using a fine diamond bur to produce a cross-sectional area of 1 mm^2. The thickness of the slabs and the width of the trimmed surface were measured using a digital caliper (Fisher Scientific, New Jersey, N.J.) and specimens in sound and caries-affected dentin were obtained. […] MPa were determined by dividing the fracture load by the cross-sectional area of the interface.
# [4] = 24 hrs ammonium bicarbonate buffer, no collagenase
# [5] = 24 hrs collagenase 100 ug/ml + ammonium bicarbonate buffer
smiles,measurement,setting,value
"O=CCCCC=O [GD, glutaraldehyde]","Ultimate tensile strength, mean","[1]; 4 hours in 0.5% PA, 0.625% GE or 5% GD",13.1 MPa
same,"Ultimate tensile strength, mean","[1]; 40 hours in 0.5% PA, 0.625% GE or 5% GD",9.1 MPa
same,"Ultimate tensile strength, pooled data","[1]; pooled over 4 and 40 hours, 0.5% PA, 0.625% GE or 5% GD",11.1 BC MPa
same,UTS values compared to the control group (statistics),"[1]; two-way ANOVA, Fisher's PLSD",no statistically significant differences
same,"UTS, individual specimens",[2]; [4],16.93 Mpa and 5.28 Mpa and 9.86 Mpa and 9.57 Mpa and 7.56 Mpa and 8.24 Mpa and 8.76 Mpa and 5.66 Mpa and 7.99 Mpa and 11.97 Mpa and 8.93 Mpa and 7.60 Mpa and 8.38 Mpa
same,"UTS, mean",[2]; [4],8.98 Mpa and 8.99 Mpa
same,"UTS, individual specimens",[2]; [5],10.31 Mpa and 16.54 Mpa and 8.71 Mpa and 8.46 Mpa and 5.59 Mpa and 8.18 Mpa and 9.27 Mpa and 12.33 Mpa and 17.30 Mpa and 7.74 Mpa and 9.75 Mpa and 6.29 Mpa and 16.53 Mpa
same,"UTS, mean",[2]; [5],10.54 Mpa
same,effect of collagenase digestion on treated demineralized dentin,"[2]; strength values versus baseline (no collagenase treatment), control groups fully digested",not affected by the collagenase treatment
same,effect on bond strength,[3],no significant effect
